Laboratory results as given in US12391701B2, “Chromene-based compounds, methods and uses thereof” (University of Minho, priority 2019, dated 2025).

What was measured:
[1] = test system: Caki-2 cediranib-resistant cells; experiment: BrdU proliferation assay, Caki-2 cediranib-resistant; assay type: cell-based; settings: 24 and 48 hours; IC50 and ½IC50; drug-resistant
MCF-7 cells = experiment: Wound-healing assay, MCF-7 cell migration; assay type: cell-based, human; settings: for cell migration less than the control: after 72 hours of treatment, IC50 (and ½IC50) concentration
Description: In an embodiment, the effect of the four selected compounds (MC408, MC409, MC406 and MC421) was further evaluated on cell migration (FIG. 1). MCF-7 cells were treated with the respective IC50 and half of the IC50 values for 72 hours and the wound-healing assay was performed. Half of the IC50 concentration was used for each compound to evaluate concentration-dependent effects. […] Results are presented as mean±SD of at least three independent experiments, *p<0.05; **p<0.01; ***p<0.001; ****p<0.0001 compared to control (DMSO, 0.5%).
In an embodiment, cell migration was assessed by the wound-healing assay that mimics the process of cell migration during wound-healing in vivo. This method is based on making a scratch, simulating a wound in a cell monolayer, capturing the images at the beginning and regular intervals during cell migration process to close the wound and comparing the images to quantify the cell migration rate. MCF-7 and Caki-2 cells were plated in 6-well plates at a density of 9.0×10^5 and 3.0×10^5 per 2 mL, respectively, and grown overnight at 37° C. in a 5% CO2 humidified atmosphere. A 200 μL pipette tip was used to make two scratches in a layer of confluent cells. Cells were gently washed once with 500 μL of PBS. MCF-7 cells were treated with compounds at the respective IC50, ½IC50, or 0.5% DMSO (control), for 72 hours. At 0, 12, 24, 48 and 72 hours, specific wound sites (four positions for each wound) were photographed. […] Images were captured at 100× magnification using an Olympus IX51 inverted microscope equipped with an Olympus DP20 Digital Camera System. Assessment of five migration distances was performed using BeWound 1.7.1 and the percentage of cell migration normalized to the control was plotted using GraphPad Prism 6 software. Three independent experiments were performed for each compound. The significance of the difference between different groups was determined with Student t-test.

[2] = test system: acute leukemia cell line Jurkat; experiment: Cell viability MTS assay, Jurkat; assay type: cell-based; settings: Homo sapiens, 72 hours
Description: In an embodiment, the antiproliferative activity of compounds MC408, MC409, MC421 and MC406 was further determined against glioma cell lines (U87, GAMG and GL18) and acute leukemia cell lines (HL-60, KG-1 and Jurkat). This was done in order to evaluate if the compounds presented an equally interesting anticancer profile in other cancer cell models. Cell viability was determined using the MTS assay, after exposure of the cells to the respective compounds for 72 hours at appropriate concentration ranges to determine the respective IC50 values.
In an embodiment, three human breast cancer cell lines Hs578T, MDA-MB-468 and MCF-7, and a normal breast cell line MCF-10A, were obtained from ATCC (American Type Culture Collection). The cancer cell lines were cultured in Dulbecco's modified Eagle medium, 4.5 g/l glucose (DMEM, Gibco) supplemented with 10% heating inactivated Fetal Bovine Serum (FBS, Gibco) and 1% antibiotic solution (Penicillin-Streptomycin, Gibco). The normal cell line was cultured in Dulbecco's Modified Eagle Medium: Nutrient Mixture F-12 (DMEM/F12, Gibco) supplemented with 5% heating inactivated FBS (Gibco), 1% antibiotic solution (Penicillin-Streptomycin, Gibco), 1% steroid hormone (Hydrocortisone, Sigma-Aldrich), 0.1% peptide hormone (Insulin, Sigma-Aldrich) and 0.01% protein complex (Cholera Toxin, Gibco). Two distinct human acute myeloid leukemia (AML) cell lines, HL-60 (FAB M2) and KG-1 (erythroleukemia-FAB M6), and one human lymphoblastic leukemia (ALL) cell line, Jurkat (T cell type), were also used. These three cell lines were obtained from German Collection of Microorganisms and Cell cultures (DMSZ®, Deutsche Sammlung von Mikroorganismen and Zellkulturen in German). Cells were cultured in RPMI 1640 medium (Biochrom®-Merck Millipore) supplemented with 10% heating inactivated FBS (Biochrom®-Merck Millipore) and 1% antibiotic/antimitotic mixture (Invitrogen®). Three human glioblastoma (GBM) cell line models, two established and commercially available cell lines (U87MG and GAMG, kind gift from Rui M. Reis) and one primary GBM culture (GLIB) were also used. GBM cells were cultures in DMEM (Biochrom-Merck Millipore), all supplemented with 10% FBS. The Renal cell carcinoma cell lines A498, 786-O, Caki-2 and HK2 were obtained from ATCC. The cancer cell line A498 was cultured in MEM medium (Biochrom®-Merck Millipore), 786-O was cultured in RPMI 1640 medium (Biochrom®-Merck Millipore), Caki-2 was cultured in Mc Coys medium (Biochrom®-Merck Millipore) and HK2 was cultured in RPMI 1640 medium (Biochrom®-Merck Millipore). All the media were supplemented with 10% heat inactivated FBS (Biochrom®-Merck Millipore) and 1% antibiotic/antimitotic mixture (Invitrogen®). All cells were grown in a humidified incubator at 37° C. and 5% CO2. […]

[3] = test system: A498 rapamycin-resistant cells; experiment: BrdU proliferation assay, A498 rapamycin-resistant; assay type: cell-based; settings: 24 and 48 hours, IC50 and ½IC50
A498 parental cells = experiment: BrdU proliferation assay, A498 parental; assay type: cell-based; settings: 24 and 48 hours, IC50 and ½IC50

SMILES	effect on cell proliferation (BrdU) [1]	cell migration less than the control (MCF-7 cells)	IC50 [2]	effect on cell proliferation (BrdU) [3]	effect on cell proliferation (BrdU) (A498 parental cells)	decrease of percentage of cell migration relative to control (MCF-7 cells; after 12 hours, IC50 and ½IC50, control 0.5% DMSO)
COc1cccc2c1Oc1nc(-c3ccccc3)[nH]c1C2 [MC350, 5-methoxy-2-phenyl-3,9-dihydrochromeno[2,3-d]imidazoles]	decrease cell proliferation	–	–	–	–	–
COc1cccc2c1Oc1nc(-c3ccc(F)cc3)[nH]c1C2C1c2cccc(OC)c2Oc2nc(-c3ccc(F)cc3)[nH]c21 (stereo not drawn) [MC406, 2,2′-bis(4-fluorophenyl)-5,5′-dimethoxy-1,1,9,9′-tetrahydro-9,9′-bichromeno[2,3-]imidazoles]	–	20%	0.12 µM	–	–	–
COc1cccc2c1Oc1nc(-c3ccc(Br)cc3)[nH]c1C2 [MC408, 2-(4-bromophenyl)-5-methoxy-3,9-dihydrochromeno[2,3-d]imidazoles]	–	20%	0.19 µM	significant decrease in cell proliferation	significant decrease in cell proliferation	–
COc1cccc2c1Oc1nc(-c3ccc(F)cc3)[nH]c1C2 [MC409, 2-(4-fluorophenyl)-5-methoxy-3,9-dihydrochromeno[2,3-d]imidazoles]	–	about 12%	0.37 µM	–	–	about 40%
COc1cccc2c1Oc1nc(-c3ccc(O)cc3)[nH]c1C2 [MC413, 4-(5-methoxy-3,9-dihydrochromeno[2,3-d]imidazol-2-yl)phenol]	decrease cell proliferation	–	–	significant decrease in cell proliferation	significant decrease in cell proliferation	–
COc1cccc2c1Oc1nc(-c3ccc(Br)cc3)[nH]c1C2C1c2cccc(OC)c2Oc2nc(-c3ccc(Br)cc3)[nH]c21 (stereo not drawn) [MC421, 2,2′-bis(4-bromophenyl)-5,5′-dimethoxy-1,1,9,9′-tetrahydro-9,9′-bichromeno[2,3-]imidazoles]	decrease cell proliferation	13%	0.18 µM	significant decrease in cell proliferation	significant decrease in cell proliferation	–
